{"source": "patent EP1430879A2", "about": "“Arylsulfatase inhibitors in deodorants and antiperspirants” (Henkel Kommanditgesellschaft auf Aktien, priority 2002, dated 2004)", "target": "T1, Arylsulfatase (EC 3.1.6.1) aus Aerobacter aerogenes (Klebsiella aerogenes, UniProt P20713)", "T1 construct": "purchased Sigma S-1629", "T1 sequence (P20713 21-464)": "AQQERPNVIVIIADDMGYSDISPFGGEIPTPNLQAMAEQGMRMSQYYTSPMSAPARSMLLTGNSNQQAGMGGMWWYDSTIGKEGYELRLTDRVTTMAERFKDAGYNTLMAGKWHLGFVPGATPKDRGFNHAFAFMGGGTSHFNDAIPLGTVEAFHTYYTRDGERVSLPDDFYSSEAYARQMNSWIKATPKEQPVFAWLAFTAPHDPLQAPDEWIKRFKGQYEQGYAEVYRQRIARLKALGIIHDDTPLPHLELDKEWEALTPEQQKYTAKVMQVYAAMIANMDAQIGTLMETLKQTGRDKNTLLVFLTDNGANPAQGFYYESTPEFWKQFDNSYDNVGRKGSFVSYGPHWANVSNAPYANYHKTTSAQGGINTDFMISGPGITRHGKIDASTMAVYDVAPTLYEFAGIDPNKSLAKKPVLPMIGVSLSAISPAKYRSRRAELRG", "assay": "Arylsulfatase enzyme inhibition test (Sigma sulfatase assay S-1629, p-nitrophenyl sulfate substrate, spectrophotometric at 420 nm)", "assay_type": "biochemical", "settings": "raw material as supplied in aqueous solution; 187 mM Tris/HCl pH 7,1, 8 mM pNPS, 0,05 U/ml Arylsulfatase, 37°C", "source_text": "Da die hautrelevante Arylsulfatase nicht zur Verfügung stand, diente eine handelsübliche Arylsulfatase (EC 3.1.6.1) aus Aerobacter aerogenes als Modellenzym, um die Hemmwirkung der erfindungsgemäß verwendeten Inhibitoren zu testen. Die Tests wurden mit dem Sulfatase-Enzymassay Product No. S-1629 von Sigma gemäß den Angaben im Sigma Quality Control Test Procedure-Datenblatt durchgeführt. Als Referenz-Inhibitoren dienten Ascorbinsäure und ATP.\nZur Auswertung wurde die Arylsulfatase-katalysierte Bildung von p-Nitrophenol aus dem Substrat p-Nitrophenylsulfat (pNPS) spektrophotometrisch (λ = 420 nm) verfolgt. Die Reaktionslösungen von 1000 µl, die auf eine Reaktionstemperatur von 37°C temperiert wurden, enthielten 187 mM Tris/HCl (pH 7,1), 8 mM pNPS und eine Startkonzentration von 0,05 U/ml Arylsulfatase. Die Einheit U der Enzymaktivität wurde so definiert, dass 1 U Sulfatase 1,0 µmol pNPS pro Minute bei pH 7,1 und 37°C hydrolysiert. Die Testdurchführung ist auch offenbart bei H.R. Fowler und D. H. Rammler, Biochemistry 3, 230, 1964.\nDie Reaktion wurde durch Zugabe des Enzyms gestartet und der Anstieg der Absorption bei λ = 420 nm über 5 Minuten verfolgt. Der lineare Anstieg der Absorption (A) pro Zeiteinheit (t) ist hierbei ein Maß für die Aktivität des Enzyms (ΔA/Δt). Die Aktivität des Enzyms in Abwesenheit eines Inhibitors, (ΔA1/Δt1 ), wurde als Referenz gleich 100% gesetzt. […]", "data": [{"smiles": "COc1cc2c(cc1O)CCC(C)(C)O2", "note": "[Lipochroman-6, 3,4-Dihydro-7-methoxy-2,2-dimethyl-2H-1-benzopyran-6-ol]", "values": [{"measurement": "Konzentration mit einer inhibierenden Wirkung von 50 %", "result": "0,1 Gew.-% Rohstoff tel quel in wässriger Lösung"}]}]}
